# Test results from ChEMBL document CHEMBL5723582, “Data for DCP probe T-10430” (2024).
# Experiments:
# Settings in all cases: Compound concentration 1.0 uM
# [1] = target: Muscarinic acetylcholine receptor M5 (Homo sapiens) (UniProt P08912); test: RLU of CHRM5 at 1.0 µM in the […] PRESTO-Tango GPCRome screen
# [2] = target: Melatonin receptor type 1B (Homo sapiens) (UniProt P49286); test: RLU of MTNR1B at 1.0 µM in the […] PRESTO-Tango GPCRome screen
# Opsin-3 (Homo sapiens) = Opsin-3 (Homo sapiens) (UniProt Q9H1Y3); test: RLU of OPN3 at 1.0 µM in the […] PRESTO-Tango GPCRome screen
# [3] = target: Galanin receptor type 2 (Homo sapiens) (UniProt O43603); test: RLU of GAL2 at 1.0 µM in the […] PRESTO-Tango GPCRome screen
# [4] = target: D(1A) dopamine receptor (Homo sapiens) (UniProt P21728); test: RLU of DRD1 at 1.0 µM in the […] PRESTO-Tango GPCRome screen
# [5] = target: Alpha-1D adrenergic receptor (Homo sapiens) (UniProt P25100); test: RLU of ADRA1D at 1.0 µM in the […] PRESTO-Tango GPCRome screen
# [6] = target: G-protein coupled receptor 20 (Homo sapiens) (UniProt Q99678); test: RLU of GPR20 at 1.0 µM in the […] PRESTO-Tango GPCRome screen
# [7] = target: G-protein coupled receptor 55 (Homo sapiens) (UniProt Q9Y2T6); test: RLU of GPR55 at 1.0 µM in the […] PRESTO-Tango GPCRome screen
# [8] = target: Alpha-1B adrenergic receptor (Homo sapiens) (UniProt P35368); test: RLU of ADRA1B at 1.0 µM in the […] PRESTO-Tango GPCRome screen
# [9] = target: Prokineticin receptor 1 (Homo sapiens) (UniProt Q8TCW9); test: RLU of PK1 at 1.0 µM in the […] PRESTO-Tango GPCRome screen
# [10] = target: Parathyroid hormone/parathyroid hormone-related peptide receptor (Homo sapiens) (UniProt Q03431); test: RLU of PTH1R at 1.0 µM in the […] PRESTO-Tango GPCRome screen
# [11] = target: G-protein coupled receptor 146 (Homo sapiens) (UniProt Q96CH1); test: RLU of GPR146 at 1.0 µM in the […] PRESTO-Tango GPCRome screen
# [12] = target: Probable G-protein coupled receptor 141 (Homo sapiens) (UniProt Q7Z602); test: RLU of GPR141 at 1.0 µM in the […] PRESTO-Tango GPCRome screen
# [13] = target: Adhesion G-protein coupled receptor G2 (Homo sapiens) (UniProt Q8IZP9); test: RLU of GPR64 at 1.0 µM in the […] PRESTO-Tango GPCRome screen
# [14] = target: Melatonin-related receptor (Homo sapiens) (UniProt Q13585); test: RLU of GPR50 at 1.0 µM in the […] PRESTO-Tango GPCRome screen
# [15] = target: Gastric inhibitory polypeptide receptor (Homo sapiens) (UniProt P48546); test: RLU of GIPR at 1.0 µM in the […] PRESTO-Tango GPCRome screen
# [16] = target: Melanocortin receptor 3 (Homo sapiens) (UniProt P41968); test: RLU of MC3R at 1.0 µM in the […] PRESTO-Tango GPCRome screen
# [17] = target: Adhesion G-protein coupled receptor G6 (Homo sapiens) (UniProt Q86SQ4); test: RLU of GPR126 at 1.0 µM in the […] PRESTO-Tango GPCRome screen
# [18] = target: Galanin receptor type 1 (Homo sapiens) (UniProt P47211); test: RLU of GAL1 at 1.0 µM in the […] PRESTO-Tango GPCRome screen
# [19] = target: Mas-related G-protein coupled receptor member D (Homo sapiens) (UniProt Q8TDS7); test: RLU of MRGPRD at 1.0 µM in the […] PRESTO-Tango GPCRome screen
# [20] = target: Adenosine receptor A3 (Homo sapiens) (UniProt P0DMS8); test: RLU of ADORA3 at 1.0 µM in the […] PRESTO-Tango GPCRome screen
# [21] = target: Beta-2 adrenergic receptor (Homo sapiens) (UniProt P07550); test: RLU of ADRB2 at 1.0 µM in the […] PRESTO-Tango GPCRome screen
# [22] = target: Adhesion G-protein coupled receptor G5 (Homo sapiens) (UniProt Q8IZF4); test: RLU of GPR114 at 1.0 µM in the […] PRESTO-Tango GPCRome screen
# [23] = target: G-protein coupled receptor 61 (Homo sapiens) (UniProt Q9BZJ8); test: RLU of GPR61 at 1.0 µM in the […] PRESTO-Tango GPCRome screen
# [24] = target: C-C chemokine receptor type 3 (Homo sapiens) (UniProt P51677); test: RLU of CCR3 at 1.0 µM in the […] PRESTO-Tango GPCRome screen
# [25] = target: Mas-related G-protein coupled receptor MRG (Homo sapiens) (UniProt P35410); test: RLU of MAS1L at 1.0 µM in the […] PRESTO-Tango GPCRome screen
# [26] = target: Proto-oncogene Mas (Homo sapiens) (UniProt P04201); test: RLU of MAS1 at 1.0 µM in the […] PRESTO-Tango GPCRome screen
# [27] = target: 5-hydroxytryptamine receptor 4 (Homo sapiens) (UniProt Q13639); test: RLU of HTR4 at 1.0 µM in the […] PRESTO-Tango GPCRome screen
# [28] = target: C-C chemokine receptor type 2 (Homo sapiens) (UniProt P41597); test: RLU of CCR2 at 1.0 µM in the […] PRESTO-Tango GPCRome screen
# [29] = target: G-protein coupled receptor 68 (Homo sapiens) (UniProt Q15743); test: RLU of GPR68 at 1.0 µM in the […] PRESTO-Tango GPCRome screen
# [30] = target: G-protein coupled receptor family C group 6 member A (Homo sapiens) (UniProt Q5T6X5); test: RLU of GPRC6A at 1.0 µM in the […] PRESTO-Tango GPCRome screen
# [31] = target: G-protein coupled receptor 62 (Homo sapiens) (UniProt Q9BZJ7); test: RLU of GPR62 at 1.0 µM in the […] PRESTO-Tango GPCRome screen
# [32] = target: Sphingosine 1-phosphate receptor 5 (Homo sapiens) (UniProt Q9H228); test: RLU of S1PR5 at 1.0 µM in the […] PRESTO-Tango GPCRome screen
# [33] = target: Free fatty acid receptor 2 (Homo sapiens) (UniProt O15552); test: RLU of FFA2 (GPR43) at 1.0 µM in the […] PRESTO-Tango GPCRome screen
# [34] = target: G-protein coupled receptor family C group 5 member C (Homo sapiens) (UniProt Q9NQ84); test: RLU of GPRC5C at 1.0 µM in the […] PRESTO-Tango GPCRome screen
# Sequence of G-protein coupled receptor family C group 5 member C (Homo sapiens) (Q9NQ84 whole entry): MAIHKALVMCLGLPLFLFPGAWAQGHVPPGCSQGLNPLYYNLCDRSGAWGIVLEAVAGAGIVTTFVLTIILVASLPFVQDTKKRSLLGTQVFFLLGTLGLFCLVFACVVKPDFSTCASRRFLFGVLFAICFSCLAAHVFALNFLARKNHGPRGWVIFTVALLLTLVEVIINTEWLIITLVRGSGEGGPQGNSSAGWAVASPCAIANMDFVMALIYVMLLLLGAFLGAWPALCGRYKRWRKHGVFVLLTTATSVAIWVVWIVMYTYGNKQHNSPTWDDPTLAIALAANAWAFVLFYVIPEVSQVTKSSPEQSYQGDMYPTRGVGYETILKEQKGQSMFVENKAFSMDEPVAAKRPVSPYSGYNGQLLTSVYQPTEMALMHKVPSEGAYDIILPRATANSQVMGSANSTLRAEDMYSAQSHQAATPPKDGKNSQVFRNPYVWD
# Sequence of Melanocortin receptor 3 (Homo sapiens) (P41968 whole entry): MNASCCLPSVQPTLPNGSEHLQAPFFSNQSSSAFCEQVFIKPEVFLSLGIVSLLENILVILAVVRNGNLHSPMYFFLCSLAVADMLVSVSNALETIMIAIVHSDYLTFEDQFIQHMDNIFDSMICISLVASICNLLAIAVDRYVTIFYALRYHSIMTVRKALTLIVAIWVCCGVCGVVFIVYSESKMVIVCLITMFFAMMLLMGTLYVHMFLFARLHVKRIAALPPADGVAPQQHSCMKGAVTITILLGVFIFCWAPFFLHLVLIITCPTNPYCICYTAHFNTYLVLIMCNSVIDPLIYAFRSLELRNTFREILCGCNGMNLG
# Sequence of Parathyroid hormone/parathyroid hormone-related peptide receptor (Homo sapiens) (Q03431 whole entry): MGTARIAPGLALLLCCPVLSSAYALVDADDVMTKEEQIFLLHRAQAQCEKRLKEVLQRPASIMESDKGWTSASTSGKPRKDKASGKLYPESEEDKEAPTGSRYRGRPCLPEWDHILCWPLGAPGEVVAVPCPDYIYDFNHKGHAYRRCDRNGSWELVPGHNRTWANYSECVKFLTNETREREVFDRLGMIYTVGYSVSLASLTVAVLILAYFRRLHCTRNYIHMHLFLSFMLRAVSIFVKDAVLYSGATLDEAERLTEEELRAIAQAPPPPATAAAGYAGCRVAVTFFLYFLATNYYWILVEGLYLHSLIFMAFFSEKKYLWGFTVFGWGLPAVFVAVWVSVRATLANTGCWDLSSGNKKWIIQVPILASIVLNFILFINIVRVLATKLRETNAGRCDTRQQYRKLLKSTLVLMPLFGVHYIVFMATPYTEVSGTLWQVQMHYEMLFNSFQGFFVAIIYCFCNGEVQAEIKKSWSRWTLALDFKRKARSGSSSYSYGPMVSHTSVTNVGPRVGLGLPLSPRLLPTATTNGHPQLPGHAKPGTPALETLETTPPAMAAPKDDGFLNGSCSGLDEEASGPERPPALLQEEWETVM
# Sequence of Adenosine receptor A3 (Homo sapiens) (P0DMS8 whole entry): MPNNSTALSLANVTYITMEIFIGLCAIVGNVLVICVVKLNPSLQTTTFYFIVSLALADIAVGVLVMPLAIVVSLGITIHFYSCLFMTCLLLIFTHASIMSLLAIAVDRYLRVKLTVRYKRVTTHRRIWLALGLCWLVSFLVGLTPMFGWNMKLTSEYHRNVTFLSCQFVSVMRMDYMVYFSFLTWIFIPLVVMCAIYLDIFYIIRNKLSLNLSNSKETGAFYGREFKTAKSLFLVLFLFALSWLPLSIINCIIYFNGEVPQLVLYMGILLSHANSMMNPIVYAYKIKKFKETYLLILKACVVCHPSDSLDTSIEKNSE
# Sequence of Prokineticin receptor 1 (Homo sapiens) (Q8TCW9 whole entry): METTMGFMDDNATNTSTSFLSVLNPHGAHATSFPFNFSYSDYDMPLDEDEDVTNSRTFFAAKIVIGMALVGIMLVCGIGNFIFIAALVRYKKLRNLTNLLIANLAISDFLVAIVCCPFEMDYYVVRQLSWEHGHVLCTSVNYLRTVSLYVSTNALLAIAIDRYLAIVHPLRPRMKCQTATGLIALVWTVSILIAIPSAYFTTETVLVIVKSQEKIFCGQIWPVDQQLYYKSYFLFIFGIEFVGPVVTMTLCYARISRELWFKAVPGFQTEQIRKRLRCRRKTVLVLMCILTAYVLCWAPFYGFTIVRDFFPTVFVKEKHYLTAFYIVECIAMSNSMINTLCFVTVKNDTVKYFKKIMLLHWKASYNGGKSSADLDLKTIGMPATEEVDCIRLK
# Sequence of Probable G-protein coupled receptor 141 (Homo sapiens) (Q7Z602 whole entry): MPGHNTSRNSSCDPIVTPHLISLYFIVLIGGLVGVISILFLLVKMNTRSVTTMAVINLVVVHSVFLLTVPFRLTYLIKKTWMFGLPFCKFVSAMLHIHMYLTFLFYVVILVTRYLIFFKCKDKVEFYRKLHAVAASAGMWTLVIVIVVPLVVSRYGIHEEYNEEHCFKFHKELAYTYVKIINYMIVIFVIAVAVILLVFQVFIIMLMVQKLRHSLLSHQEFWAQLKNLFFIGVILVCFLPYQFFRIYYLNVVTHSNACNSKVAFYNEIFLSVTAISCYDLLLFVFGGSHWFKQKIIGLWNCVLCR
# Sequence of Galanin receptor type 2 (Homo sapiens) (O43603 whole entry): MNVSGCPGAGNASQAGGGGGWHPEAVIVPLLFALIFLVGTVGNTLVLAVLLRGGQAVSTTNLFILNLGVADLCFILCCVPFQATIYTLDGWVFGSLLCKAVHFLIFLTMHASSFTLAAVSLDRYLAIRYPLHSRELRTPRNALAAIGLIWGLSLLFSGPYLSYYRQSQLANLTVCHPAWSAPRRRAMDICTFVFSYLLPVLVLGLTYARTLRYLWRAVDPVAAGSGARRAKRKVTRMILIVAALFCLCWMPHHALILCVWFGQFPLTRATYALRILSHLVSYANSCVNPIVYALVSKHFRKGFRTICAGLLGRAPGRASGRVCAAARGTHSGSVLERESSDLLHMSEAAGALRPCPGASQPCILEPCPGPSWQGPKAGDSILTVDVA
# Sequence of G-protein coupled receptor 146 (Homo sapiens) (Q96CH1 whole entry): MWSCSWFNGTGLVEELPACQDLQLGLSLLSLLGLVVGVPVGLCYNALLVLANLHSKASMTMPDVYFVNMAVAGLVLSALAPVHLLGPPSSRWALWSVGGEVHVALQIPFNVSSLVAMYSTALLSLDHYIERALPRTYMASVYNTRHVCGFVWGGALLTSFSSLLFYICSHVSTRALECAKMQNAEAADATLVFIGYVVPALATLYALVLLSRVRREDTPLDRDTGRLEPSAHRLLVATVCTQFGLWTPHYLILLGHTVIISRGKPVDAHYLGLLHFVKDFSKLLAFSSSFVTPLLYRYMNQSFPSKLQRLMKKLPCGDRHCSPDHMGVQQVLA
# Sequence of 5-hydroxytryptamine receptor 4 (Homo sapiens) (Q13639 whole entry): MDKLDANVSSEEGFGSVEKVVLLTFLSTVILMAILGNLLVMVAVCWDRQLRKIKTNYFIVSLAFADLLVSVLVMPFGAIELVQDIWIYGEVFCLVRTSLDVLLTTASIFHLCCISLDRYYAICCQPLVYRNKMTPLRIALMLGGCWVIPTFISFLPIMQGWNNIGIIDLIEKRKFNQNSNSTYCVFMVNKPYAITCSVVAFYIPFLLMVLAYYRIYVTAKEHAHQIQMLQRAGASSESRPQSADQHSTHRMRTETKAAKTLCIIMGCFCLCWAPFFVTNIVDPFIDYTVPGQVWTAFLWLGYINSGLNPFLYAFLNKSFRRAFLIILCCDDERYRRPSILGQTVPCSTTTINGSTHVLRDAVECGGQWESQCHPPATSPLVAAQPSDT
# Sequence of Free fatty acid receptor 2 (Homo sapiens) (O15552 whole entry): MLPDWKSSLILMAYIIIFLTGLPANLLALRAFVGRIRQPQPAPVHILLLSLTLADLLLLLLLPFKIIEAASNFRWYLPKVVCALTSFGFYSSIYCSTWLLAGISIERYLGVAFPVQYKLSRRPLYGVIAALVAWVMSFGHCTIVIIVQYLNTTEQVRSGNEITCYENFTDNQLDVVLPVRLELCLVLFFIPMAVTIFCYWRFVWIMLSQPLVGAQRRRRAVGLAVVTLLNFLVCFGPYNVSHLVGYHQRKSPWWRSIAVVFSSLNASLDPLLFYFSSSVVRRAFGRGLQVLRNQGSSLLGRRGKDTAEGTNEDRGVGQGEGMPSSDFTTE
# Sequence of Melatonin-related receptor (Homo sapiens) (Q13585 whole entry): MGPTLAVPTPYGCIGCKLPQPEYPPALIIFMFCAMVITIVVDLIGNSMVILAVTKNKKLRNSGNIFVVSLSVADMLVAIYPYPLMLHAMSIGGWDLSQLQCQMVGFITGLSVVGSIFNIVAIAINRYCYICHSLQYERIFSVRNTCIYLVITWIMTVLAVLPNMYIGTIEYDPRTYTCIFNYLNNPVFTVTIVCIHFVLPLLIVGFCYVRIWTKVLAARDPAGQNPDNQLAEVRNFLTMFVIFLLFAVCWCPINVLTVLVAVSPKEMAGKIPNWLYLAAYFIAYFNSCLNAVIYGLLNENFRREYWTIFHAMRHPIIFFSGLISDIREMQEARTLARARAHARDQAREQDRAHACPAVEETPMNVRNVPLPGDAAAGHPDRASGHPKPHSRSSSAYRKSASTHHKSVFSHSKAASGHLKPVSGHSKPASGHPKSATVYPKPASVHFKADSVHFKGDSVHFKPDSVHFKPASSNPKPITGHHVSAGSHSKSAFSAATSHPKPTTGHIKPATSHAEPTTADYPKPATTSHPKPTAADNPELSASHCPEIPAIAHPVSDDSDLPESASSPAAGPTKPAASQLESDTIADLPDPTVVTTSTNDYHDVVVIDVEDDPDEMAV
# Sequence of Galanin receptor type 1 (Homo sapiens) (P47211 whole entry): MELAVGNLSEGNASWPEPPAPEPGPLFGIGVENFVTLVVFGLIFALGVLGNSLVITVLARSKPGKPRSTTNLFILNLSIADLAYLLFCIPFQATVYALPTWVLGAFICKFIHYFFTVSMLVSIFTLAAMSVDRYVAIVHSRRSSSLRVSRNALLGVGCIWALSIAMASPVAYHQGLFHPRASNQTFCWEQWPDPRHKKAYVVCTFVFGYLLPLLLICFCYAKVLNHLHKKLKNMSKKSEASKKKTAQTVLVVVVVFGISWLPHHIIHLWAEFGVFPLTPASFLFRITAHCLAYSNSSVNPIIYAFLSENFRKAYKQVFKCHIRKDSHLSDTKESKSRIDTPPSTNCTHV
smiles,measurement,setting,value
CCCCC(=O)N1CC2(C1)CN(c1ccccc1-c1nnn[nH]1)C2,RLU,[1],7390
same,RLU,[2],4170
same,RLU,Opsin-3 (Homo sapiens),338
same,RLU,[3],1140
same,RLU,[4],1630
same,RLU,[5],2940
same,RLU,[6],-1200
same,RLU,[7],602000
same,RLU,[8],-2730
same,RLU,[9],10800
same,RLU,[10],13.4
same,RLU,[11],-1510
same,RLU,[12],2790
same,RLU,[13],8730
same,RLU,[14],435000
same,RLU,[15],-1500
same,RLU,[16],18.8
same,RLU,[17],-6500
same,RLU,[18],-212
same,RLU,[19],-630
same,RLU,[20],506
same,RLU,[21],4580
same,RLU,[22],432
same,RLU,[23],1400
same,RLU,[24],2420
same,RLU,[25],2610
same,RLU,[26],-1360
same,RLU,[27],-2330
same,RLU,[28],2850
same,RLU,[29],-1790
same,RLU,[30],-9110
same,RLU,[31],477000
same,RLU,[32],2920
same,RLU,[33],-5970
same,RLU,[34],3560
